{
  "source": "ChEMBL document CHEMBL1201861",
  "about": "“Genomics of Drug Sensitity in Cancer screening data, Wellcome Trust Sanger Institute”",
  "assay_in_all_cases": "cells",
  "key": {"SK-LMS-1": {"system": "SK-LMS-1", "type": "functional, cell-based, Homo sapiens", "conditions": "Homo sapiens, SK-LMS-1", "description": "SANGER: Inhibition of human SK-LMS-1 cell growth in a cell viability assay."}, "BE-13": {"system": "BE-13", "type": "functional, cell-based, Homo sapiens", "conditions": "Homo sapiens, BE-13", "description": "SANGER: Inhibition of human BE-13 cell growth in a cell viability assay."}, "ACN": {"system": "ACN", "type": "functional, cell-based, Homo sapiens", "conditions": "Homo sapiens, ACN", "description": "SANGER: Inhibition of human ACN cell growth in a cell viability assay."}, "ES3": {"system": "ES3", "type": "functional, cell-based, Homo sapiens", "conditions": "Homo sapiens, ES3", "description": "SANGER: Inhibition of human ES3 cell growth in a cell viability assay."}, "GI-1": {"system": "GI-1", "type": "functional, cell-based, Homo sapiens", "conditions": "Homo sapiens, GI-1", "description": "SANGER: Inhibition of human GI-1 cell growth in a cell viability assay."}, "L-363": {"system": "L-363", "type": "functional, cell-based, Homo sapiens", "conditions": "Homo sapiens, L-363", "description": "SANGER: Inhibition of human L-363 cell growth in a cell viability assay."}, "MLMA": {"system": "MLMA", "type": "functional, cell-based, Homo sapiens", "conditions": "Homo sapiens, MLMA", "description": "SANGER: Inhibition of human MLMA cell growth in a cell viability assay."}, "MZ7-mel": {"system": "MZ7-mel", "type": "functional, cell-based, Homo sapiens", "conditions": "Homo sapiens, MZ7-mel", "description": "SANGER: Inhibition of human MZ7-mel cell growth in a cell viability assay."}, "MOLT-4": {"system": "MOLT-4", "type": "functional, cell-based, Homo sapiens", "conditions": "Homo sapiens, MOLT-4", "description": "SANGER: Inhibition of human MOLT-4 cell growth in a cell viability assay."}, "NH-12": {"system": "NH-12", "type": "functional, cell-based, Homo sapiens", "conditions": "Homo sapiens, NH-12", "description": "SANGER: Inhibition of human NH-12 cell growth in a cell viability assay."}, "SW684": {"system": "SW684", "type": "functional, cell-based, Homo sapiens", "conditions": "Homo sapiens, SW684; read-out: IC50", "description": "SANGER: Inhibition of human SW684 cell growth in a cell viability assay."}, "MFM-223": {"system": "MFM-223", "type": "functional, cell-based, Homo sapiens", "conditions": "Homo sapiens, MFM-223", "description": "SANGER: Inhibition of human MFM-223 cell growth in a cell viability assay."}, "LAMA-84": {"system": "LAMA-84", "type": "functional, cell-based, Homo sapiens", "conditions": "Homo sapiens, LAMA-84", "description": "SANGER: Inhibition of human LAMA-84 cell growth in a cell viability assay."}, "KG-1": {"system": "KG-1", "type": "functional, cell-based, Homo sapiens", "conditions": "Homo sapiens, KG-1", "description": "SANGER: Inhibition of human KG-1 cell growth in a cell viability assay."}, "LOX IMVI": {"system": "LOX IMVI", "type": "functional, cell-based, Homo sapiens", "conditions": "Homo sapiens, LOX IMVI", "description": "SANGER: Inhibition of human LOXIMVI cell growth in a cell viability assay."}, "SJSA-1": {"system": "SJSA-1", "type": "functional, cell-based, Homo sapiens", "conditions": "Homo sapiens, SJSA-1", "description": "SANGER: Inhibition of human SJSA-1 cell growth in a cell viability assay."}, "SK-N-DZ": {"system": "SK-N-DZ", "type": "functional, cell-based, Homo sapiens", "conditions": "Homo sapiens, SK-N-DZ; read-out: IC50", "description": "SANGER: Inhibition of human SK-N-DZ cell growth in a cell viability assay."}, "TE-1": {"system": "TE-1", "type": "functional, cell-based, Homo sapiens", "conditions": "Homo sapiens, TE-1", "description": "SANGER: Inhibition of human TE-1 cell growth in a cell viability assay."}, "RH-1": {"system": "RH-1", "type": "functional, cell-based, Homo sapiens", "conditions": "Homo sapiens, RH-1", "description": "SANGER: Inhibition of human RH-1 cell growth in a cell viability assay."}, "C2BBe1": {"system": "C2BBe1", "type": "functional, cell-based, Homo sapiens", "conditions": "Homo sapiens, C2BBe1", "description": "SANGER: Inhibition of human C2BBe1 cell growth in a cell viability assay."}, "AM-38": {"system": "AM-38", "type": "functional, cell-based, Homo sapiens", "conditions": "Homo sapiens, AM-38", "description": "SANGER: Inhibition of human AM-38 cell growth in a cell viability assay."}, "EW-18": {"system": "EW-18", "type": "functional, cell-based, Homo sapiens", "conditions": "Homo sapiens, EW-18; read-out: IC50", "description": "SANGER: Inhibition of human EW-18 cell growth in a cell viability assay."}, "NCI-H226": {"system": "NCI-H226", "type": "functional, cell-based, Homo sapiens", "conditions": "Homo sapiens, NCI-H226", "description": "SANGER: Inhibition of human NCI-H226 cell growth in a cell viability assay."}, "DSH1": {"system": "DSH1", "type": "functional, cell-based", "conditions": "Homo sapiens", "description": "SANGER: Inhibition of human DSH1 cell growth in a cell viability assay."}, "IA-LM": {"system": "IA-LM", "type": "functional, cell-based", "conditions": "Homo sapiens", "description": "SANGER: Inhibition of human IA-LM cell growth in a cell viability assay."}, "IST-MES1": {"system": "IST-MES1", "type": "functional, cell-based, Homo sapiens", "conditions": "Homo sapiens, IST-MES1", "description": "SANGER: Inhibition of human IST-MES1 cell growth in a cell viability assay."}, "EOL1": {"system": "EOL1", "type": "functional, cell-based, Homo sapiens", "conditions": "Homo sapiens, EOL1", "description": "SANGER: Inhibition of human EoL-1-cell cell growth in a cell viability assay."}, "TE-5": {"system": "TE-5", "type": "functional, cell-based, Homo sapiens", "conditions": "Homo sapiens, TE-5", "description": "SANGER: Inhibition of human TE-5 cell growth in a cell viability assay."}, "SW 962": {"system": "SW 962", "type": "functional, cell-based, Homo sapiens", "conditions": "Homo sapiens, SW 962", "description": "SANGER: Inhibition of human SW962 cell growth in a cell viability assay."}, "ES1": {"system": "ES1", "type": "functional, cell-based, Homo sapiens", "conditions": "Homo sapiens, ES1", "description": "SANGER: Inhibition of human ES1 cell growth in a cell viability assay."}, "NCI-H23": {"system": "NCI-H23", "type": "functional, cell-based, Homo sapiens", "conditions": "Homo sapiens, NCI-H23", "description": "SANGER: Inhibition of human NCI-H23 cell growth in a cell viability assay."}, "NCI-H1838": {"system": "NCI-H1838", "type": "functional, cell-based, Homo sapiens", "conditions": "Homo sapiens, NCI-H1838", "description": "SANGER: Inhibition of human NCI-H1838 cell growth in a cell viability assay."}, "SHP77": {"system": "SHP77", "type": "functional, cell-based, Homo sapiens, SHP-77", "conditions": "Homo sapiens, SHP77", "description": "SANGER: Inhibition of human SHP-77 cell growth in a cell viability assay."}, "A253 cell line": {"system": "A253 cell line", "type": "functional, cell-based, Homo sapiens", "conditions": "Homo sapiens, A253", "description": "SANGER: Inhibition of human A253 cell growth in a cell viability assay."}, "MPP-89": {"system": "MPP-89", "type": "functional, cell-based, Homo sapiens", "conditions": "Homo sapiens, MPP-89", "description": "SANGER: Inhibition of human MPP-89 cell growth in a cell viability assay."}, "SF-126": {"system": "SF-126", "type": "functional, cell-based, Homo sapiens", "conditions": "Homo sapiens, SF-126", "description": "SANGER: Inhibition of human SF126 cell growth in a cell viability assay."}, "NB13": {"system": "NB13", "type": "functional, cell-based, Homo sapiens", "conditions": "Homo sapiens, NB13", "description": "SANGER: Inhibition of human NB13 cell growth in a cell viability assay."}, "HAL-01": {"system": "HAL-01", "type": "functional, cell-based, Homo sapiens", "conditions": "Homo sapiens, HAL-01", "description": "SANGER: Inhibition of human HAL-01 cell growth in a cell viability assay."}, "SK-PN-DW": {"system": "SK-PN-DW", "type": "functional, cell-based, Homo sapiens", "conditions": "Homo sapiens, SK-PN-DW", "description": "SANGER: Inhibition of human SK-PN-DW cell growth in a cell viability assay."}, "Lu-65": {"system": "Lu-65", "type": "functional, cell-based, Homo sapiens", "conditions": "Homo sapiens, Lu-65", "description": "SANGER: Inhibition of human LU-65 cell growth in a cell viability assay."}, "KLE": {"system": "KLE", "type": "functional, cell-based", "conditions": "Homo sapiens", "description": "SANGER: Inhibition of human KLE cell growth in a cell viability assay."}, "CCRF-CEM": {"system": "CCRF-CEM", "type": "functional, cell-based, Homo sapiens", "conditions": "Homo sapiens, CCRF-CEM", "description": "SANGER: Inhibition of human CCRF-CEM cell growth in a cell viability assay."}, "KE-37": {"system": "KE-37", "type": "functional, cell-based, Homo sapiens", "conditions": "Homo sapiens, KE-37", "description": "SANGER: Inhibition of human KE-37 cell growth in a cell viability assay."}, "KM12": {"system": "KM12", "type": "functional, cell-based, Homo sapiens", "conditions": "Homo sapiens, KM12", "description": "SANGER: Inhibition of human KM12 cell growth in a cell viability assay."}, "QIMR-WIL": {"system": "QIMR-WIL", "type": "functional, cell-based, Homo sapiens", "conditions": "Homo sapiens, QIMR-WIL", "description": "SANGER: Inhibition of human QIMR-WIL cell growth in a cell viability assay."}, "JAR": {"system": "JAR", "type": "functional, cell-based, Homo sapiens", "conditions": "Homo sapiens, JAR", "description": "SANGER: Inhibition of human JAR cell growth in a cell viability assay."}, "LS-513": {"system": "LS-513", "type": "functional, cell-based, Homo sapiens", "conditions": "Homo sapiens, LS-513", "description": "SANGER: Inhibition of human LS-513 cell growth in a cell viability assay."}, "BV-173": {"system": "BV-173", "type": "functional, cell-based, Homo sapiens", "conditions": "Homo sapiens, BV-173", "description": "SANGER: Inhibition of human BV-173 cell growth in a cell viability assay."}, "A101D": {"system": "A101D", "type": "functional, cell-based, Homo sapiens", "conditions": "Homo sapiens, A101D", "description": "SANGER: Inhibition of human A101D cell growth in a cell viability assay."}, "HD-MY-Z": {"system": "HD-MY-Z", "type": "functional, cell-based, Homo sapiens", "conditions": "Homo sapiens, HD-MY-Z", "description": "SANGER: Inhibition of human HD-MY-Z cell growth in a cell viability assay."}},
  "data": [
    {"smiles": "Cc1cc(N2CCOCC2)cc2[nH]c(-c3c(NC[C@@H](O)c4cccc(Cl)c4)cc[nH]c3=O)nc12", "values": [
      {"measurement": "IC50", "setting": "SK-LMS-1", "result": 4.81, "unit": "µM"},
      {"measurement": "IC50", "setting": "BE-13", "result": "> 5.12", "unit": "µM"},
      {"measurement": "IC50", "setting": "ACN", "result": 1.98, "unit": "µM"},
      {"measurement": "IC50", "setting": "ES3", "result": "> 5.12", "unit": "µM"},
      {"measurement": "IC50", "setting": "GI-1", "result": 0.913, "unit": "µM"},
      {"measurement": "IC50", "setting": "L-363", "result": 0.328, "unit": "µM"},
      {"measurement": "IC50", "setting": "MLMA", "result": 2.01, "unit": "µM"},
      {"measurement": "IC50", "setting": "MZ7-mel", "result": "> 5.12", "unit": "µM"},
      {"measurement": "IC50", "setting": "MOLT-4", "result": 4.58, "unit": "µM"},
      {"measurement": "IC50", "setting": "NH-12", "result": "> 5.12", "unit": "µM"},
      {"measurement": "IC50", "setting": "SW684", "result": "> 5.12", "unit": "µM"},
      {"measurement": "IC50", "setting": "MFM-223", "result": "> 5.12", "unit": "µM"},
      {"measurement": "IC50", "setting": "LAMA-84", "result": "> 5.12", "unit": "µM"},
      {"measurement": "IC50", "setting": "KG-1", "result": "> 5.12", "unit": "µM"},
      {"measurement": "IC50", "setting": "LOX IMVI", "result": "> 5.12", "unit": "µM"},
      {"measurement": "IC50", "setting": "SJSA-1", "result": 0.456, "unit": "µM"},
      {"measurement": "IC50", "setting": "SK-N-DZ", "result": 2.11, "unit": "µM"},
      {"measurement": "IC50", "setting": "TE-1", "result": 0.754, "unit": "µM"},
      {"measurement": "IC50", "setting": "RH-1", "result": "> 5.12", "unit": "µM"},
      {"measurement": "IC50", "setting": "C2BBe1", "result": "> 5.12", "unit": "µM"},
      {"measurement": "IC50", "setting": "AM-38", "result": "> 5.12", "unit": "µM"},
      {"measurement": "IC50", "setting": "EW-18", "result": "> 5.12", "unit": "µM"},
      {"measurement": "IC50", "setting": "NCI-H226", "result": "> 5.12", "unit": "µM"},
      {"measurement": "IC50", "setting": "DSH1", "result": "> 5.12", "unit": "µM"},
      {"measurement": "IC50", "setting": "IA-LM", "result": "> 5.12", "unit": "µM"},
      {"measurement": "IC50", "setting": "IST-MES1", "result": 1.12, "unit": "µM"},
      {"measurement": "IC50", "setting": "EOL1", "result": 1.57, "unit": "µM"},
      {"measurement": "IC50", "setting": "TE-5", "result": "> 5.12", "unit": "µM"},
      {"measurement": "IC50", "setting": "SW 962", "result": 1.2, "unit": "µM"},
      {"measurement": "IC50", "setting": "ES1", "result": 1.62, "unit": "µM"},
      {"measurement": "IC50", "setting": "NCI-H23", "result": "> 5.12", "unit": "µM"},
      {"measurement": "IC50", "setting": "NCI-H1838", "result": "> 5.12", "unit": "µM"},
      {"measurement": "IC50", "setting": "SHP77", "result": "> 5.12", "unit": "µM"},
      {"measurement": "IC50", "setting": "A253 cell line", "result": "> 5.12", "unit": "µM"},
      {"measurement": "IC50", "setting": "MPP-89", "result": 3.5, "unit": "µM"},
      {"measurement": "IC50", "setting": "SF-126", "result": 2.47, "unit": "µM"},
      {"measurement": "IC50", "setting": "NB13", "result": "> 5.12", "unit": "µM"},
      {"measurement": "IC50", "setting": "HAL-01", "result": 1.12, "unit": "µM"},
      {"measurement": "IC50", "setting": "SK-PN-DW", "result": 3.43, "unit": "µM"},
      {"measurement": "IC50", "setting": "Lu-65", "result": 4.5, "unit": "µM"},
      {"measurement": "IC50", "setting": "KLE", "result": 3.62, "unit": "µM"},
      {"measurement": "IC50", "setting": "CCRF-CEM", "result": "> 5.12", "unit": "µM"},
      {"measurement": "IC50", "setting": "KE-37", "result": "> 5.12", "unit": "µM"},
      {"measurement": "IC50", "setting": "KM12", "result": 0.0284, "unit": "µM"},
      {"measurement": "IC50", "setting": "QIMR-WIL", "result": "> 5.12", "unit": "µM"},
      {"measurement": "IC50", "setting": "JAR", "result": "> 5.12", "unit": "µM"},
      {"measurement": "IC50", "setting": "LS-513", "result": 4.17, "unit": "µM"},
      {"measurement": "IC50", "setting": "BV-173", "result": "> 5.12", "unit": "µM"},
      {"measurement": "IC50", "setting": "A101D", "result": 1.89, "unit": "µM"},
      {"measurement": "IC50", "setting": "HD-MY-Z", "result": "> 5.12", "unit": "µM"}
    ]}
  ]
}
